The record followed here is ChEMBL document CHEMBL1772992, “Synthesis, in silico docking experiments of new 2-pyrrolidinone derivatives and study of their anti-inflammatory activity” (Bioorg Med Chem, 2011).

Each structure is given as a SMILES string. Calls of active or inactive are those of the source. The rule behind the calls is not given here.

Experiment [1] can be described thus: Antioxidant activity against AAPH-induced lipid peroxidation assessed as linoleic acid oxidation to diene hydroperoxide at 0.1 mM by UV-visible spectrophotometry. Format: functional.
For a further experiment, the system named is Rattus norvegicus. Kind of experiment: Antiinflammatory activity in Fisher 344 rat assessed as inhibition of carrageenan-induced paw edema at 0.01 mmol/kg, ip administered simultaneously with carrageenan measured after 3.5 hrs relative to control. The experiment is classed as functional. The conditions noted are these: Fisher 344, ip. (Carrageenan injected into the paw causes an acute inflammation.)

The nature of experiment [2]: Inhibition of soybean LOX assessed as inhibition of sodium linoleate to 13-hydroperoxylinoleic acid conversion by UV-visible spectrophotometry. Details: species or system Glycine max.
Experiment [3] deals with Radical scavenging activity. Kind of experiment: Antioxidant activity assessed as DPPH free radical scavenging activity after 20 to 60 mins by spectrophotometry. Format: functional. Set-up: concentration or dose not given beside the values. (In general: DPPH is a stable violet radical that fades when it is reduced.)
The next experiment deals with Glycine max. Kind of experiment: Inhibition of soybean LOX assessed as inhibition of sodium linoleate to 13-hydroperoxylinoleic acid conversion at 0.1 mM by UV-visible spectrophotometry.

What is called inhibition is the share of the control response that was lost under treatment. For the molecule `Cc1c(C)c2c(c(C)c1O)CCC(C)(C(=O)O)O2` (stereo not drawn), the inhibition in experiment [1] was 63%.
Usually inhibition in vivo stands for the percentage by which the read-out fell short of the control. Regarding `COc1ccc2c(c1)c(CC(=O)O)c(C)n2C(=O)c1ccc(Cl)cc1` [INDOMETHACIN], the inhibition in vivo at 10 µmol/kg in the experiment on Rattus norvegicus was 47%.
As usually defined, the IC50 is the concentration needed to halve the response being measured. As for `O=C(O)/C=C/c1ccc(O)c(O)c1` [CAFFEIC ACID], in experiment [2], the IC50 turned out to be 600 µM. Moreover, the Activity in experiment [3] stood at 5.5%. Further, the inhibition in experiment [1] is 17%.
As for `CC(Cc1ccc(O)c(O)c1)C(C)Cc1ccc(O)c(O)c1` (stereo not drawn), the inhibition in the experiment with Glycine max was determined as 84%. Also, the Activity in experiment [3] came to 81%.
For the molecule `O=C(O)c1cncn1C[C@@H]1CCC(=O)N1Cc1ccccc1`, the inhibition in the experiment on Glycine max amounted to 81%. Further, in experiment [3], the result was inactive. For the same molecule, the inhibition entry in experiment [1] was “inactive”.
On to `COC(=O)c1cncn1C[C@@H]1CCC(=O)N1Cc1ccc(C(=O)O)cc1`, for which the inhibition entry (with Glycine max; in experiment [1]) was “inactive” in each case. Besides, the Activity in experiment [3] worked out at 26%.
On to `O=C(O)c1ccc(CN2C(=O)CC[C@H]2Cn2ccnc2)cc1`, for which, in experiment [2], the IC50 was 80 µM. The Activity in experiment [3] amounted to 6%. The inhibition in vivo at 10 µmol/kg with Rattus norvegicus is 41%. For the same molecule, in experiment [1], the inhibition was 2%.
Consider `O=C1CC[C@@H](Cn2ccnc2)N1Cc1cccc(O)c1`, for which, in the experiment on Glycine max, the inhibition result is “inactive”. In addition, the Activity in experiment [3] is 29%. Besides, in experiment [1], the inhibition turned out to be 13%.
Take `COC(=O)c1ccc(CN2C(=O)CC[C@H]2Cn2cncc2C(=O)O)cc1`: the IC50 in experiment [2] stood at 70.5 µM. For the same molecule, the Activity in experiment [3] came to 3%. Moreover, in the experiment with Rattus norvegicus, the inhibition in vivo at 10 µmol/kg was found to be 34%. The inhibition in experiment [1] is 96%.
`O=C1CC[C@@H](Cn2ccnc2)N1Cc1ccccc1-c1nn[nH]n1`: the results for the inhibition (in the experiment on Glycine max; in experiment [1]) were 5.2% and 32%, respectively. In addition, the Activity in experiment [3] stood at 30%.
With `COC(=O)c1ccc(CN2C(=O)CC[C@H]2Cn2ccnc2)cc1`, in the experiment with Glycine max, the inhibition entry was “inactive”. Besides, the Activity in experiment [3] was determined as 6%. Moreover, the inhibition in experiment [1] is 13%.
For `O=C1CC[C@@H](Cn2ccnc2)N1Cc1ccccc1` the same measures were 13%, 9% and 11%.
